In patent US20050107400A1, “Use of pyrazolopyridines as therapeutic compounds” (priority 2001, published 2005) one finds melting point and IC50 data, which are given here for six molecules.

The structures appear in SMILES notation.

What is called melting point is the temperature of the solid-liquid transition. Broadly, the IC50 is the point on the concentration scale where inhibition reaches its midpoint.

Tested on in the first data set: not given
Assay: not given
Conditions: not given
Molecule `OCc1ccc2c(-c3ccnc(NC4CCCC4)n3)c(-c3ccc(F)cc3)nn2c1` [Example 33, [3-[2-(Cyclopentylamino)-4-pyrimidinyl]-2-(4-fluorophenyl)pyrazolo-[1,5-a]pyridin-6-yl]methanol] returned a melting point of 155 to 156 °C.
On the same count and under the same terms, with `CCOC(=O)c1ccc2c(-c3ccnc(NC4CCCC4)n3)c(-c3ccc(F)cc3)nn2c1C` [Example 81, Ethyl 3-[2-(cyclopentylamino)-4-pyrimidinyl]-2-(4-fluorophenyl)-7-methylpyrazolo[1,5-a]pyridine-6-carboxylate] the figure was 155 to 156 °C.

In the next data set the test system is HSV-1. Nature of the data set: HSV-1 replication in infected Vero 76 cells, DNA hybridization capture assay. The class given is cell-based, herpes simplex virus 1. Conditions: Human alphaherpesvirus 1; HSV-1 in Vero 76 cells, MOI=0.001, 40-48 hours at 37° C.; read-out: IC50.
Regarding `OCc1ccc2c(-c3ccnc(NC4CCCC4)n3)c(-c3ccc(F)cc3)nn2c1` [Example 33, [3-[2-(Cyclopentylamino)-4-pyrimidinyl]-2-(4-fluorophenyl)pyrazolo-[1,5-a]pyridin-6-yl]methanol], the IC50 came to 2.5 µM.
Consider `CCCCOc1cccc2c(-c3ccnc(NC4CCCC4)n3)c(-c3ccc(OC)cc3)nn12` [Example 228, 4-[7-Butoxy-2-(4-methoxyphenyl)pyrazolo[1,5-a]pyridin-3-yl]-N-cyclopentyl-2-pyrimidinamine], for which the half-inhibitory concentration (IC50) was determined as 0.28 µM.
On to `CSc1cc(Cl)cc2c(-c3ccnc(NC4CCCC4)n3)c(-c3cccc(Cl)c3)nn12` [Example 229, 4-[5-Chloro-2-(3-chlorophenyl)-7-(methylsulfanyl)pyrazolo[1,5-a]pyridin-3-yl]-N-cyclopentyl-2-pyrimidinamine], for which the half-maximal inhibitory concentration (IC50) turned out to be 1 µM.
The same measure, in the same setting: for `CSc1cccc2c(-c3cc(NC4CCCC4)ncn3)c(-c3ccc(F)cc3)nn12` [Example 230, N-cyclopentyl-6-[2-(4-fluorophenyl)-7-(methylthio)pyrazolo[1,5-a]pyridin-3-yl]pyrimidin-4-amine] the value was 1.3 µM; for `CC(C)Sc1cc(N2CCOCC2)cc2c(-c3ccnc(NC4CCCC4)n3)c(-c3ccc(F)cc3)nn12` [Example 232, N-Cyclopentyl-4-[2-(4-fluorophenyl)-7-(isopropylthio)-5-morpholin-4-ylpyrazolo[1,5-a]pyridin-3-yl]pyrimidin-2-amine], 0.9 µM.
